Measurements reported in PubChem BioAssay AID1963958 (Molecular Pharmacology Branch, DTP, NCI, 2024).

Test system: MDA-MB-231 multicell spheroids, viability
Experiment: Anticancer human tumor MDA-MB-231 cell line growth inhibition [PI3K];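 also: spheroids exposed to agents for seven days before reading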;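 as to viability, T/C: percent of vehicle control luminescence with DMSO treated spheroids as 100%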
Conditions: for IC50: curve of first compound; for viability, T/C: stronger effect = lower value
Summary of the method: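 Complex 3D spheroids (cancer cells + endothelial HUVEC + mesenchymal stem cells); drug pairs of targeted agent x inavolisib/alpelisib/duvelisib/copanlisib; half-log series from ~Cmax, max 10 microM if Cmax unknown; endpoint viability.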

[1] = second compound 0.0316 µM, first compound 0.0316 µM
[2] = second compound 0.0316 µM, first compound 0.1 µM
[3] = second compound 0.0316 µM, first compound 0.316 µM
[4] = second compound 0.0316 µM, first compound 1 µM
[5] = second compound 0.0316 µM, first compound 3.16 µM
[6] = second compound 0.0316 µM, first compound 10 µM
[7] = second compound 0.1 µM, first compound 0.0316 µM
[8] = second compound 0.1 µM, first compound 0.1 µM
[9] = second compound 0.1 µM, first compound 0.316 µM
[10] = second compound 0.1 µM, first compound 1 µM
[11] = second compound 0.1 µM, first compound 3.16 µM
[12] = second compound 0.1 µM, first compound 10 µM
[13] = second compound 0.316 µM, first compound 0.0316 µM
[14] = second compound 0.316 µM, first compound 0.1 µM
[15] = second compound 0.316 µM, first compound 0.316 µM
[16] = second compound 0.316 µM, first compound 1 µM
[17] = second compound 0.316 µM, first compound 3.16 µM
[18] = second compound 0.316 µM, first compound 10 µM
[19] = second compound 1 µM, first compound 0.0316 µM
[20] = second compound 1 µM, first compound 0.1 µM
[21] = second compound 1 µM, first compound 0.316 µM
[22] = second compound 1 µM, first compound 1 µM
[23] = second compound 1 µM, first compound 3.16 µM
[24] = second compound 1 µM, first compound 10 µM
[25] = second compound 3.16 µM, first compound 0.0316 µM
[26] = second compound 3.16 µM, first compound 0.1 µM
[27] = second compound 3.16 µM, first compound 0.316 µM
[28] = second compound 3.16 µM, first compound 1 µM
[29] = second compound 3.16 µM, first compound 3.16 µM
[30] = second compound 3.16 µM, first compound 10 µM
[31] = second compound 10 µM, first compound 0.0316 µM
[32] = second compound 10 µM, first compound 0.1 µM
[33] = second compound 10 µM, first compound 0.316 µM
[34] = second compound 10 µM, first compound 1 µM
[35] = second compound 10 µM, first compound 3.16 µM
[36] = second compound 10 µM, first compound 10 µM

C#Cc1c(F)ccc2cc(O)cc(-c3ncc4c(N5CC6CCC(C5)N6)nc(OCC56CCCN5CC(F)C6)nc4c3F)c12 (stereo not drawn) + CC(Nc1ncnc2nc[nH]c12)c1cc2cccc(Cl)c2c(=O)n1-c1ccccc1
IC50 (second compound 0.0316 µM): > 10 µM | IC50 (second compound 0.1 µM): > 10 µM | IC50 (second compound 0.316 µM): > 10 µM | IC50 (second compound 1 µM): 6.63 µM | IC50 (second compound 3.16 µM): 1.94 µM | IC50 (second compound 10 µM): 0.0387 µM | viability, T/C [1]: 109% | viability, T/C [2]: 96.2% | viability, T/C [3]: 103% | viability, T/C [4]: 94.6% | viability, T/C [5]: 89.9% | viability, T/C [6]: 61.1% | viability, T/C [7]: 101% | viability, T/C [8]: 99.1% | viability, T/C [9]: 90.6% | viability, T/C [10]: 88.3% | viability, T/C [11]: 79.5% | viability, T/C [12]: 57.7% | viability, T/C [13]: 99.2% | viability, T/C [14]: 89% | viability, T/C [15]: 87.6% | viability, T/C [16]: 86.4% | viability, T/C [17]: 77.5% | viability, T/C [18]: 53.2% | viability, T/C [19]: 75.5% | viability, T/C [20]: 83.2% | viability, T/C [21]: 90.2% | viability, T/C [22]: 72.8% | viability, T/C [23]: 62.4% | viability, T/C [24]: 43.5% | viability, T/C [25]: 65.5% | viability, T/C [26]: 62.8% | viability, T/C [27]: 56.6% | viability, T/C [28]: 56.5% | viability, T/C [29]: 46.7% | viability, T/C [30]: 33.1% | viability, T/C [31]: 51.4% | viability, T/C [32]: 46.8% | viability, T/C [33]: 44.4% | viability, T/C [34]: 39.8% | viability, T/C [35]: 35.4% | viability, T/C [36]: 26.4%

C=CC(=O)N1CCN(c2nc(=O)n(-c3c(C)ccnc3C(C)C)c3nc(-c4c(O)cccc4F)c(F)cc23)C(C)C1 (stereo not drawn) + CC(Nc1ncnc2nc[nH]c12)c1cc2cccc(Cl)c2c(=O)n1-c1ccccc1
IC50 (second compound 0.0316 µM): > 10 µM | IC50 (second compound 0.1 µM): > 10 µM | IC50 (second compound 0.316 µM): > 10 µM | IC50 (second compound 1 µM): > 10 µM | IC50 (second compound 3.16 µM): > 10 µM | IC50 (second compound 10 µM): > 10 µM | viability, T/C [1]: 104% | viability, T/C [2]: 110% | viability, T/C [3]: 115% | viability, T/C [4]: 134% | viability, T/C [5]: 131% | viability, T/C [6]: 118% | viability, T/C [7]: 111% | viability, T/C [8]: 103% | viability, T/C [9]: 113% | viability, T/C [10]: 132% | viability, T/C [11]: 131% | viability, T/C [12]: 118% | viability, T/C [13]: 101% | viability, T/C [14]: 98.7% | viability, T/C [15]: 111% | viability, T/C [16]: 115% | viability, T/C [17]: 133% | viability, T/C [18]: 114% | viability, T/C [19]: 86.9% | viability, T/C [20]: 90.1% | viability, T/C [21]: 95.7% | viability, T/C [22]: 106% | viability, T/C [23]: 108% | viability, T/C [24]: 96% | viability, T/C [25]: 66.5% | viability, T/C [26]: 70.9% | viability, T/C [27]: 73.5% | viability, T/C [28]: 79.5% | viability, T/C [29]: 88.2% | viability, T/C [30]: 78.4% | viability, T/C [31]: 51% | viability, T/C [32]: 52.5% | viability, T/C [33]: 55.5% | viability, T/C [34]: 59% | viability, T/C [35]: 58.5% | viability, T/C [36]: 54.6%

CC(Cn1ccc(-c2ccc(C#N)c(Cl)c2)n1)NC(=O)c1cc(C(C)O)[nH]n1 (stereo not drawn) + CC(Nc1ncnc2nc[nH]c12)c1cc2cccc(Cl)c2c(=O)n1-c1ccccc1
IC50 (second compound 0.0316 µM): > 10 µM | IC50 (second compound 0.1 µM): > 10 µM | IC50 (second compound 0.316 µM): > 10 µM | IC50 (second compound 1 µM): > 10 µM | IC50 (second compound 3.16 µM): > 10 µM | IC50 (second compound 10 µM): < 0.0316 µM | viability, T/C [1]: 100% | viability, T/C [2]: 95.7% | viability, T/C [3]: 99.6% | viability, T/C [4]: 98.5% | viability, T/C [5]: 96% | viability, T/C [6]: 82.3% | viability, T/C [7]: 92.9% | viability, T/C [8]: 98.3% | viability, T/C [9]: 97.9% | viability, T/C [10]: 95.2% | viability, T/C [11]: 92.4% | viability, T/C [12]: 78.4% | viability, T/C [13]: 81.9% | viability, T/C [14]: 93% | viability, T/C [15]: 95% | viability, T/C [16]: 88.5% | viability, T/C [17]: 87.9% | viability, T/C [18]: 75.7% | viability, T/C [19]: 70.6% | viability, T/C [20]: 79.4% | viability, T/C [21]: 78.4% | viability, T/C [22]: 79.5% | viability, T/C [23]: 72.2% | viability, T/C [24]: 64.5% | viability, T/C [25]: 61.3% | viability, T/C [26]: 61% | viability, T/C [27]: 61.4% | viability, T/C [28]: 56.2% | viability, T/C [29]: 56.9% | viability, T/C [30]: 49.2% | viability, T/C [31]: 47% | viability, T/C [32]: 44.3% | viability, T/C [33]: 47.8% | viability, T/C [34]: 45.5% | viability, T/C [35]: 42% | viability, T/C [36]: 36%

CC1(C)CCC(Nc2ncc(C(F)(F)F)c(-c3c[nH]c4c(P(C)(C)=O)c(C#N)ccc34)n2)CN1 (stereo not drawn) + CC(Nc1ncnc2nc[nH]c12)c1cc2cccc(Cl)c2c(=O)n1-c1ccccc1
IC50 (second compound 0.0316 µM): 0.0316 µM | IC50 (second compound 0.1 µM): 0.0316 µM | IC50 (second compound 0.316 µM): 0.0316 µM | IC50 (second compound 1 µM): < 0.0316 µM | IC50 (second compound 3.16 µM): < 0.0316 µM | IC50 (second compound 10 µM): < 0.0316 µM | viability, T/C [1]: 46.4% | viability, T/C [2]: 37.8% | viability, T/C [3]: 41.4% | viability, T/C [4]: 53.5% | viability, T/C [5]: 60.6% | viability, T/C [6]: 5.54% | viability, T/C [7]: 46.3% | viability, T/C [8]: 38.5% | viability, T/C [9]: 40.7% | viability, T/C [10]: 51.6% | viability, T/C [11]: 55.6% | viability, T/C [12]: 5.27% | viability, T/C [13]: 45.7% | viability, T/C [14]: 39.4% | viability, T/C [15]: 42.5% | viability, T/C [16]: 48.6% | viability, T/C [17]: 54.2% | viability, T/C [18]: 6.2% | viability, T/C [19]: 43.9% | viability, T/C [20]: 34.7% | viability, T/C [21]: 38.6% | viability, T/C [22]: 49.4% | viability, T/C [23]: 49.6% | viability, T/C [24]: 4.82% | viability, T/C [25]: 39.8% | viability, T/C [26]: 37% | viability, T/C [27]: 42.2% | viability, T/C [28]: 44.9% | viability, T/C [29]: 36% | viability, T/C [30]: 4.74% | viability, T/C [31]: 38.4% | viability, T/C [32]: 34.6% | viability, T/C [33]: 36% | viability, T/C [34]: 33.2% | viability, T/C [35]: 35.5% | viability, T/C [36]: 3.53%
